# Test results as given in paper PMC8578332 (Scientific Reports, 2021).
# Read-outs that look alike come from different tables or passages of the source. Where a SMILES comes first, the peptide text is derived from it. Bridges are numbered along the chain shown (N, C = ends).
# Target: human α7-containing nAChRs (Homo sapiens, UniProt P36544)
# Test: cell-based
# Assay type: cell-based
# Sequence of human α7-containing nAChRs (P36544 23-502 limits assumed): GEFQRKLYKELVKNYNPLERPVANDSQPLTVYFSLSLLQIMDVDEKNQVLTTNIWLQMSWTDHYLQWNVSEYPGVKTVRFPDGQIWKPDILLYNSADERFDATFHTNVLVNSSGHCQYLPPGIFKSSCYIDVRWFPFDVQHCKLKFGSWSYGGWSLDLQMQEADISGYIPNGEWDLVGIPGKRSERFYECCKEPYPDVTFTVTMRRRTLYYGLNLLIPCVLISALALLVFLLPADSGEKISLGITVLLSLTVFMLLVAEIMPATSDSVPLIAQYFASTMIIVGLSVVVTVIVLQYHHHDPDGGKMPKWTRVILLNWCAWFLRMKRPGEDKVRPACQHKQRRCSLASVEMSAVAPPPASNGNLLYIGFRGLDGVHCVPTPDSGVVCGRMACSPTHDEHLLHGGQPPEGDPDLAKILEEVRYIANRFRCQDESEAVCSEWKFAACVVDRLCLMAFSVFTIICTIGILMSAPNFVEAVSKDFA
Compound,IC50 (SEM),IC50,other results
"CC(C)[C@H](NC(=O)[C@@H]1CSSC[C@H](NC(=O)[C@@H](N)CO)C(=O)N[C@H]2CSSC[C@H](NC(=O)[C@H](C)NC(=O)[C@@H]3CCCN3C(=O)[C@H](CC(N)=O)NC(=O)[C@H](CO)NC2=O)C(=O)N[C@@H](CCCNC(=N)N)C(=O)N[C@@H](Cc2c[nH]cn2)C(=O)N[C@@H](CC(N)=O)C(=O)N[C@@H](Cc2c[nH]cn2)C(=O)N2CCC[C@H]2C(=O)N1)C(N)=O [rAusIA [A4S ∆5]] (H-SCCSNPACRHNHPCV-NH2; disulfide 2-14, 3-8)",29 ± 1.1 µM,–,–
"CC[C@H](C)[C@@H]1NC(=O)[C@H](CC(N)=O)NC(=O)[C@@H]2CCCN2C(=O)[C@H](CC(N)=O)NC(=O)[C@H](CC(N)=O)NC(=O)[C@H](C(C)C)NC(=O)[C@H](CCCNC(=N)N)NC(=O)[C@@H]2CSSC[C@H](NC(=O)[C@@H](NC(=O)CNC(=O)[C@@H](N)CO)CSSC[C@@H](C(N)=O)NC1=O)C(=O)N[C@@H](CCCNC(=N)N)C(=O)N[C@@H](CC(N)=O)C(=O)N1CCC[C@H]1C(=O)N[C@@H](C)C(=O)N2 [rLsIA [S5R]] (H-SGCCRNPACRVNNPNIC-NH2; disulfide 3-17, 4-9)",27 ± 5.3 µM,–,–
"CC(C)[C@H](NC(=O)[C@@H]1CSSC[C@H](NC(=O)[C@@H](N)CO)C(=O)N[C@H]2CSSC[C@H](NC(=O)[C@H](C)NC(=O)[C@@H]3CCCN3C(=O)[C@H](CC(N)=O)NC(=O)[C@H](C)NC(=O)[C@H](C)NC2=O)C(=O)N[C@@H](CCCNC(=N)N)C(=O)N[C@@H](Cc2c[nH]cn2)C(=O)N[C@@H](CC(N)=O)C(=O)N[C@@H](Cc2c[nH]cn2)C(=O)N2CCC[C@H]2C(=O)N1)C(N)=O [rAusIA [R5A]] (H-SCCAANPACRHNHPCV-NH2; disulfide 2-15, 3-9)",–,> 100 µM,–
"CC(C)[C@H](NC(=O)[C@@H]1CSSC[C@H](NC(=O)[C@@H](N)CO)C(=O)N[C@H]2CSSC[C@H](NC(=O)[C@H](C)NC(=O)[C@@H]3CCCN3C(=O)[C@H](CC(N)=O)NC(=O)[C@H](CCCNC(=N)N)NC2=O)C(=O)N[C@@H](CCCNC(=N)N)C(=O)N[C@@H](Cc2c[nH]cn2)C(=O)N[C@@H](CC(N)=O)C(=O)N[C@@H](Cc2c[nH]cn2)C(=O)N2CCC[C@H]2C(=O)N1)C(N)=O [rAusIA [∆4]] (H-SCCRNPACRHNHPCV-NH2; disulfide 2-14, 3-8)",11 ± 0.24 µM,–,–
"CC(C)[C@H](NC(=O)[C@@H]1CSSC[C@@H]2NC(=O)[C@@H](NC(=O)[C@@H](N)CO)CSSC[C@H](NC(=O)[C@H](C)NC(=O)[C@H](C)NC(=O)[C@H](CC(N)=O)NC(=O)[C@H](CCCNC(=N)N)NC(=O)[C@H](C)NC2=O)C(=O)N[C@@H](CCCNC(=N)N)C(=O)N[C@@H](Cc2c[nH]cn2)C(=O)N[C@@H](CC(N)=O)C(=O)N[C@@H](Cc2c[nH]cn2)C(=O)N2CCC[C@H]2C(=O)N1)C(N)=O [gAusIA [P7A]] (H-SCCARNAACRHNHPCV-NH2; disulfide 2-9, 3-15)",–,> 100 µM,–
"C[C@@H]1NC(=O)[C@@H]2CSSC[C@H](NC(=O)[C@H](C)NC(=O)[C@@H]3CCCN3C(=O)[C@H](CC(N)=O)NC(=O)[C@H](CCCNC(=N)N)NC1=O)C(=O)N[C@@H](CCCNC(=N)N)C(=O)N[C@@H](Cc1c[nH]cn1)C(=O)N[C@@H](CC(N)=O)C(=O)N[C@@H](Cc1c[nH]cn1)C(=O)N1CCC[C@H]1C(=O)N[C@H](C(N)=O)CSSC[C@H](NC(=O)[C@@H](N)CO)C(=O)N2 [rAusIA [∆16]] (H-SCCARNPACRHNHPC-NH2; disulfide 2-15, 3-9)",60 ± 9.9 µM,–,–
"CC(C)[C@H](NC(=O)[C@@H]1CSSC[C@@H]2NC(=O)[C@@H](NC(=O)[C@@H](N)CO)CSSC[C@H](NC(=O)[C@H](C)NC(=O)[C@@H]3CCCN3C(=O)[C@H](CC(N)=O)NC(=O)[C@H](C)NC(=O)[C@H](C)NC2=O)C(=O)N[C@@H](CCCNC(=N)N)C(=O)N[C@@H](Cc2c[nH]cn2)C(=O)N[C@@H](CC(N)=O)C(=O)N[C@@H](Cc2c[nH]cn2)C(=O)N2CCC[C@H]2C(=O)N1)C(N)=O [gAusIA [R5A]] (H-SCCAANPACRHNHPCV-NH2; disulfide 2-9, 3-15)",–,> 100 µM,–
"CC(C)[C@H](NC(=O)[C@@H]1CSSC[C@H](NC(=O)[C@@H](N)CO)C(=O)N[C@H]2CSSC[C@H](NC(=O)[C@H](C)NC(=O)[C@@H]3CCCN3C(=O)[C@H](CC(N)=O)NC(=O)[C@H](CO)NC(=O)[C@H](C)NC2=O)C(=O)N[C@@H](CCCNC(=N)N)C(=O)N[C@@H](Cc2c[nH]cn2)C(=O)N[C@@H](CC(N)=O)C(=O)N[C@@H](Cc2c[nH]cn2)C(=O)N2CCC[C@H]2C(=O)N1)C(N)=O [rAusIA [R5S]] (H-SCCASNPACRHNHPCV-NH2; disulfide 2-15, 3-9)",70 ± 10 µM,–,–
"C[C@@H]1NC(=O)[C@@H]2CSSC[C@H](NC(=O)[C@H](C)NC(=O)[C@@H]3CCCN3C(=O)[C@H](CC(N)=O)NC1=O)C(=O)N[C@@H](CCCNC(=N)N)C(=O)N[C@@H](Cc1c[nH]cn1)C(=O)N[C@@H](CC(N)=O)C(=O)N[C@@H](Cc1c[nH]cn1)C(=O)N1CCC[C@H]1C(=O)N[C@H](C(N)=O)CSSC[C@H](NC(=O)[C@@H](N)CO)C(=O)N2 [rAusIA [∆5 ∆16]] (H-SCCANPACRHNHPC-NH2; disulfide 2-14, 3-8)",27 ± 5.3 µM,–,–
"CC[C@H](C)[C@@H]1NC(=O)[C@H](CC(N)=O)NC(=O)[C@@H]2CCCN2C(=O)[C@H](CC(N)=O)NC(=O)[C@H](CC(N)=O)NC(=O)[C@H](C(C)C)NC(=O)[C@H](CCCNC(=N)N)NC(=O)[C@@H]2CSSC[C@H](NC(=O)CNC(=O)[C@@H](N)CO)C(=O)N[C@@H](CSSC[C@@H](C(N)=O)NC1=O)C(=O)N[C@@H](CCCNC(=N)N)C(=O)N[C@@H](CC(N)=O)C(=O)N1CCC[C@H]1C(=O)N[C@@H](C)C(=O)N2 [gLsIA [S5R]] (H-SGCCRNPACRVNNPNIC-NH2; disulfide 3-9, 4-17)",0.24 ± 0.04 µM,–,–
"CC(C)C[C@@H]1NC(=O)[C@H](CCCNC(=N)N)NC(=O)[C@@H]2CSSC[C@H](NC(=O)[C@@H](NC(=O)[C@@H](N)CO)CSSC[C@@H](C(=O)N[C@H](C(N)=O)C(C)C)NC(=O)[C@@H]3CCCN3C(=O)[C@H](Cc3c[nH]cn3)NC(=O)[C@H](CC(N)=O)NC1=O)C(=O)N[C@@H](C)C(=O)N[C@@H](CCCNC(=N)N)C(=O)N[C@@H](CC(N)=O)C(=O)N1CCC[C@H]1C(=O)N[C@@H](C)C(=O)N2 [rAusIA [H11L]] (H-SCCARNPACRLNHPCV-NH2; disulfide 2-15, 3-9)",30 ± 2.2 µM,–,–
"CC(C)[C@H](NC(=O)[C@@H]1CSSC[C@H](NC(=O)CN)C(=O)N[C@H]2CSSC[C@H](NC(=O)[C@H](C)NC(=O)[C@@H]3CCCN3C(=O)[C@H](CC(N)=O)NC(=O)[C@H](CCCNC(=N)N)NC(=O)[C@H](C)NC2=O)C(=O)N[C@@H](CCCNC(=N)N)C(=O)N[C@@H](Cc2c[nH]cn2)C(=O)N[C@@H](CC(N)=O)C(=O)N[C@@H](Cc2c[nH]cn2)C(=O)N2CCC[C@H]2C(=O)N1)C(N)=O [rAusIA [S1G]] (H-GCCARNPACRHNHPCV-NH2; disulfide 2-15, 3-9)",–,–,Ratio (IC50 ratio between gAusIA/rAusIA and its corresponding analogues): 2.00; fold decrease (loss) in potency relative to wildtype of same isomer: two
"CC(C)[C@H](NC(=O)[C@@H]1CSSC[C@H](NC(=O)[C@@H](N)CO)C(=O)N[C@H]2CSSC[C@H](NC(=O)[C@H](C)NC(=O)[C@@H]3CCCN3C(=O)[C@H](CC(N)=O)NC(=O)[C@H](CCCNC(=N)N)NC(=O)[C@H](CO)NC2=O)C(=O)N[C@@H](CCCNC(=N)N)C(=O)N[C@@H](Cc2c[nH]cn2)C(=O)N[C@@H](CC(N)=O)C(=O)N[C@@H](Cc2c[nH]cn2)C(=O)N2CCC[C@H]2C(=O)N1)C(N)=O [rAusIA [A4S]] (H-SCCSRNPACRHNHPCV-NH2; disulfide 2-15, 3-9)",32 ± 7.3 µM,–,–
"CC(C)[C@H](NC(=O)[C@@H]1CSSC[C@H](NC(=O)[C@@H](N)CO)C(=O)N[C@H]2CSSC[C@H](NC(=O)[C@H](C)NC(=O)[C@@H]3CCCN3C(=O)[C@H](CC(N)=O)NC(=O)[C@H](CCCNC(=N)N)NC(=O)[C@H](C)NC2=O)C(=O)N[C@@H](C)C(=O)N[C@@H](Cc2c[nH]cn2)C(=O)N[C@@H](CC(N)=O)C(=O)N[C@@H](Cc2c[nH]cn2)C(=O)N2CCC[C@H]2C(=O)N1)C(N)=O [rAusIA [R10A]] (H-SCCARNPACAHNHPCV-NH2; disulfide 2-15, 3-9)",–,> 100 µM,–
"CC(C)[C@H](NC(=O)[C@@H]1CSSC[C@H](NC(=O)[C@@H](N)CO)C(=O)N[C@H]2CSSC[C@H](NC(=O)[C@H](C)NC(=O)[C@H](C)NC(=O)[C@H](CC(N)=O)NC(=O)[C@H](CCCNC(=N)N)NC(=O)[C@H](C)NC2=O)C(=O)N[C@@H](CCCNC(=N)N)C(=O)N[C@@H](Cc2c[nH]cn2)C(=O)N[C@@H](CC(N)=O)C(=O)N[C@@H](Cc2c[nH]cn2)C(=O)N2CCC[C@H]2C(=O)N1)C(N)=O [rAusIA [P7A]] (H-SCCARNAACRHNHPCV-NH2; disulfide 2-15, 3-9)",–,> 100 µM,–
"CC(C)[C@H](NC(=O)[C@@H]1CSSC[C@@H]2NC(=O)[C@@H](NC(=O)[C@@H](N)CO)CSSC[C@H](NC(=O)[C@H](C)NC(=O)[C@@H]3CCCN3C(=O)[C@H](CC(N)=O)NC(=O)[C@H](CO)NC(=O)[C@H](C)NC2=O)C(=O)N[C@@H](CCCNC(=N)N)C(=O)N[C@@H](Cc2c[nH]cn2)C(=O)N[C@@H](CC(N)=O)C(=O)N[C@@H](Cc2c[nH]cn2)C(=O)N2CCC[C@H]2C(=O)N1)C(N)=O [gAusIA [R5S]] (H-SCCASNPACRHNHPCV-NH2; disulfide 2-9, 3-15)",–,> 100 µM,–
"CC(C)[C@H](NC(=O)[C@@H]1CSSC[C@@H]2NC(=O)[C@@H](NC(=O)[C@@H](N)CO)CSSC[C@H](NC(=O)[C@H](C)NC(=O)[C@@H]3CCCN3C(=O)[C@H](CC(N)=O)NC(=O)[C@H](CCCNC(=N)N)NC2=O)C(=O)N[C@@H](CCCNC(=N)N)C(=O)N[C@@H](Cc2c[nH]cn2)C(=O)N[C@@H](CC(N)=O)C(=O)N[C@@H](Cc2c[nH]cn2)C(=O)N2CCC[C@H]2C(=O)N1)C(N)=O [gAusIA [∆4]] (H-SCCRNPACRHNHPCV-NH2; disulfide 2-8, 3-14)",1 ± 0.03 µM,–,–
"CC[C@H](C)[C@@H]1NC(=O)[C@H](CC(N)=O)NC(=O)[C@@H]2CCCN2C(=O)[C@H](CC(N)=O)NC(=O)[C@H](CC(N)=O)NC(=O)[C@H](C(C)C)NC(=O)[C@H](CCCNC(=N)N)NC(=O)[C@@H]2CSSC[C@H](NC(=O)[C@@H](NC(=O)CNC(=O)[C@@H](N)CO)CSSC[C@@H](C(N)=O)NC1=O)C(=O)N[C@@H](C)C(=O)N[C@@H](CO)C(=O)N[C@@H](CC(N)=O)C(=O)N1CCC[C@H]1C(=O)N[C@@H](C)C(=O)N2 [rLsIA [∇A5]] (H-SGCCASNPACRVNNPNIC-NH2; disulfide 3-18, 4-10)",57 ± 14.7 µM,–,–
